Experimental data from patent publication US20240400555A1 (Initial Therapeutics, Inc., priority 2023, published 2024).

Each compound was assayed on HCT-116 Firefly-luciferase reporter cells (assay: Cellular c-MYC Reporter Assay). Conditions: Homo sapiens; untitled table following Table 8a; HCT-116 Firefly-luciferase reporter cells, 24 h; read-out: pIC50 (converted).
Format: cell-based
Method in brief: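 Compound exposure lasted 24 h at 37 °C, 5% CO2, in complete McCoy's 5A medium containing 0.2% DMSO, beginning 4–6 h post-seeding (5e4 cells/mL). Firefly luciferase signal measured by luminescence after 10 min ONE-Glo development at room temperature.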

Row | IC50 [nM] | SMILES
1 | 4270 | O=C(c1ccc(-n2nnc3cccnc32)cc1F)N(c1ncccc1C1=CCNC1)[C@@H]1CCCNC1 [Example 113, (R)-4-(3H-[1,2,3]triazolo[4,5-b]pyridin-3-yl)-N-(3-(2,5-dihydro-1H-pyrrol-3-yl)pyridin-2-yl)-2-fluoro-N-(piperidin-3-yl)benzamide]
2 | 38 | Cc1csc2ccnc(N(C(=O)c3ccc(-n4nnc5cccnc54)cc3F)[C@@H]3CCCNC3)c12 [Example 121, 2-fluoro-N-(3-methylthieno[3,2-c]pyridin-4-yl)-N-[(3R)-3-piperidyl]-4-(triazolo[4,5-b]pyridin-3-yl)benzamide]
3 | 575 | O=C(c1ccc(-n2nnc3cccnc32)cc1F)N(c1nccc2ccc(CCCO)cc12)[C@@H]1CCCNC1 [Example 134, (R)-4-(3H-[1,2,3]triazolo[4,5-b]pyridin-3-yl)-2-fluoro-N-(7-(3 hydroxypropyl)isoquinolin-1-yl)-N-(piperidin-3-yl)benzamide]
4 | 776 | O=C(c1ccc(-n2nnc3cccnc32)cc1F)N(c1nccc2sc(Br)cc12)[C@@H]1CCCNC1 [Example 162, (R)-4-(3H-[1,2,3]triazolo[4,5-b]pyridin-3-yl)-N-(2-bromothieno[3,2-c]pyridin-4-yl)-2-fluoro-N-(piperidin-3-yl)benzamide]
5 | 170 | O=C(c1ccc(-n2nnc3cccnc32)cc1F)N(c1nccc2cccc(/C=C/CO)c12)[C@@H]1CCCNC1 [Example 165, (R,E)-4-(3H-[1,2,3]triazolo[4,5-b]pyridin-3-yl)-2-fluoro-N-(8-(3-hydroxyprop-1-en-1-yl)isoquinolin-1-yl)-N-(piperidin-3-yl)benzamide]
6 | > 20000 | O=C(O)/C=C/c1ccc2ccnc(N(C(=O)c3ccc(-n4nnc5cccnc54)cc3F)[C@@H]3CCCNC3)c2c1 [Example 295, (R,E)-3-(1-(4-(3H-[1,2,3]triazolo[4,5-b]pyridin-3-yl)-2-fluoro-N-(piperidin-3-yl)benzamido)isoquinolin-7-yl)acrylic acid]
7 | 263 | Cc1cc(C2CCN(C(=O)N(c3nccc4cccc(C)c34)[C@@H]3CCCNC3)CC2)ccn1 [Example 199, (R)—N-(8-methylisoquinolin-1-yl)-4-(2-methylpyridin-4-yl)-N-(piperidin-3-yl)piperidine-1-carboxamide]
8 | 240 | Cc1cccc2ccnc(N(C(=O)c3ccc(-c4cnccn4)cc3)[C@@H]3CCCNC3)c12 [Example 238, (R)—N-(8-methylisoquinolin-1-yl)-N-(piperidin-3-yl)-4-(pyrazin-2-yl)benzamide]
9 | > 20000 | Cc1cccc2ccnc(N(C(=O)c3ccc(-c4n[nH]c5c4CNCC5)cc3F)[C@@H]3CCCNC3)c12 [Example 296, (R)-2-fluoro-N-(8-methylisoquinolin-1-yl)-N-(piperidin-3-yl)-4-(4,5,6,7-tetrahydro-1H-pyrazolo[4,3-c]pyridin-3-yl)benzamide]
10 | 166 | Cc1cn(-c2ccc(C(=O)N(c3nccc4cccc(C)c34)[C@@H]3CCCNC3)cc2)nn1 [Example 236, (R)-4-(4-methyl-1H-1,2,3-triazol-1-yl)-N-(8-methylisoquinolin-1-yl)-N-(piperidin-3-yl)benzamide]
11 | 8320 | Cc1cccc2ccnc(N(C(=O)N3CCCCC3c3nc4ccccc4s3)[C@@H]3CCCNC3)c12 (stereo partly drawn) [Example 259, 2-(benzo[d]thiazol-2-yl)-N-(8-methylisoquinolin-1-yl)-N—((R)-piperidin-3-yl)piperidine-1-carboxamide]
12 | 115 | Cc1ccc(C)c2c(N(C(=O)c3ccc(-n4nnc5cccnc54)cc3F)[C@@H]3CCCNC3)nccc12 [Example 253, (R)-4-(3H-[1,2,3]triazolo[4,5-b]pyridin-3-yl)-N-(5,8-dimethylisoquinolin-1-yl)-2-fluoro-N-(piperidin-3-yl)benzamide]
13 | 2000 | O=C(c1ccc(-n2nnc3cccnc32)cc1F)N(c1nccc2cccc(C(F)(F)F)c12)[C@@H]1CCCNC1 [Example 221, (R)-4-(3H-[1,2,3]triazolo[4,5-b]pyridin-3-yl)-2-fluoro-N-(piperidin-3-yl)-N-(8-(trifluoromethyl)isoquinolin-1-yl)benzamide]
